Assay results reported in US20240245691A1 (Sitryx Therapeutics Limited, priority 2021, published 2024).
pEC50, pIC50: −log10 of the molar value. Like-named read-outs stand apart in the source and are kept apart here. Values belong to the compound of their own block, whether it stands above or below them.

Tests used:
[1] = tested on: IL-1β; test: THP-1 AlphaLISA IL-1β cytokine assay (differentiated THP-1 cells); type: cell-based
Procedure: (§1) Measuring Inhibitory Effects on IL-1V Cytokine and IL-6 Output from THP-1s
(§2) The cytokine inhibition profiles of compounds of formula (I) were determined in a differentiated THP-1 cell assay. All assays were performed in RPMI-1640 growth medium (Gibco), supplemented with 10% fetal bovine serum (FBS; Gibco), 1% penicillin-streptomycin and 1% sodium pyruvate unless specified otherwise. The IL-1β and IL-6 cytokine inhibition assays were run in a background of differentiated THP-1 cells as described below. All reagents described were from Sigma-Aldrich unless specified otherwise. Compounds were prepared as 10 mM DMSO stocks.
(§3) THP-1 cells were expanded as a suspension up to 80% confluence in appropriate growth medium. Cells were harvested, suspended, and treated with an appropriate concentration of phorbol 12-myristate 13-acetate (PMA) over a 72 hr period (37° C./5% CO2).
(§4) Following 72 hrs of THP-1 cell incubation, cellular medium was removed and replaced with fresh growth media containing 1% of FBS. Working concentrations of compounds were prepared separately in 10% FBS treated growth medium and pre-incubated with the cells for 30 minutes (37° C./5% CO2). Following the 30 minute compound pre-incubation, THP-1s were treated with an appropriate concentration of LPS and the THP-1s were subsequently incubated for a 24 hr period (37° C./5% CO2). An appropriate final concentration of Nigericin was then dispensed into the THP-1 plates and incubated for 1 hour (37° C./5% CO2) before THP-1 supernatants were harvested and collected in separate polypropylene 96-well holding plates.
(§5) Reagents from each of the IL-1β and IL-6 commercial kits (Perkin Elmer) were prepared and run according to the manufacturer's instructions. Subsequently, fluorescence signal detection in a microplate reader was measured (EnVision® Multilabel Reader, Perkin Elmer).
(§6) Percentage inhibition was calculated per cytokine by normalising the sample data to the high and low controls used within each plate (+/−LPS respectively).
(§7) Dimethyl itaconate and 4-octyl itaconate were included as comparator compounds.

[2] = tested on: IL-6; test: THP-1 AlphaLISA IL-6 cytokine assay (differentiated THP-1 cells); type: cell-based
Procedure: as §1, §2, §3, §4, §5, §6, §7

[3] = tested on: cryo-preserved hepatocytes; test: Hepatocyte stability assay, human; type: in vitro ADME
Source text: (§8) Defrosted cryo-preserved hepatocytes (viability>70%) were used to determine the metabolic stability of a compound via calculation of intrinsic clearance (CIint; a measure of the removal of a compound from the liver in the absence of blood flow and cell binding). Clearance data are particularly important for in vitro work as they can be used in combination with in vivo data to predict the half-life and oral bioavailability of a drug.
(§9) The metabolic stability in hepatocytes assay involved a time-dependent reaction using both positive and negative controls. The cells must be pre-incubated at 37° C. then spiked with test compound (and positive control); samples taken at pre-determined time intervals were analysed to monitor the change in concentration of the initial drug compound over 60 minutes. A buffer incubation reaction (with no hepatocytes present) acted as a negative control and two cocktail solutions, containing compounds with known high and low clearance values (verapamil/7-hydroxycoumarin and propranolol/diltiazem), acted as positive controls. • 1. The assay was run with a cell concentration of 0.5×10^6 cells/mL in Leibovitz buffer. • 2. All compounds and controls were run in duplicate. • 3. Compound concentration was 10 μM. • 4. All compounds and controls were incubated with both cells and buffer to show turnover is due to hepatic metabolism. • 5. All wells on the incubation plate had 326.7 μL of either cells or buffer added. • 6. Prior to assay, cell and buffer-only incubation plates were preincubated for 10 mins at 37° C. • 7. The assay was initiated by adding compounds, 3.3 μL of 1 mM in 10% DMSO-90% Buffer; final DMSO concentration is 0.1%. • 8. Samples were taken at regular timepoints (0, 5, 10, 20, 40, 60 min) until 60 mins. • 9. Sample volume was 40 μL and added to 160 μL of crash solvent (acetonitrile with internal standard) and stored on ice. • 10. At the end of the assay, the crash plates were centrifuged at 3500 rpm for 20 mins at 4° C. • 11. 80 μL of clear supernatant was removed and mixed with 80 μL of deionised water before being analysed by LC-MS/MS.
(§10) Raw LC-MS/MS data were exported to, and analysed in, Microsoft Excel for determination of intrinsic clearance. The percentage remaining of a compound was monitored using the peak area of the initial concentration as 100%. Intrinsic clearance and half-life values were calculated using a graph of the natural log of percentage remaining versus the time of reaction in minutes.
(§11) 4-Octyl itaconate was included as a comparator compound.

[4] = tested on: cryo-preserved hepatocytes; test: Hepatocyte stability assay, mouse; type: in vitro ADME
Source text: as §8, §9, §10, §11

[5] = Hepatocyte stability assay, human; type: in vitro ADME; conditions: human, hepatocytes, T½
Source text: as §8, §9, §10, §11

[6] = Hepatocyte stability assay, mouse; type: in vitro ADME; conditions: mouse, hepatocytes, T½
Source text: as §8, §9, §10, §11

[7] = tested on: NRF2 (nuclear factor erythroid 2-related factor 2); test: NRF2 +/-GSH activation assay (DiscoverX PathHunter NRF2 translocation kit, U2OS cells); type: cell-based; conditions: for Emax / pEC50: Homo sapiens; for Emax: U2OS; for pEC50: U2OS PathHunter cells, 6 hours
[8] = differentiated THP-1 cells, LPS 24 hr then Nigericin 1 hour, read-out: IL-1β (IC50)
[9] = Homo sapiens, THP-1, differentiated THP-1 cells, LPS 24 hr then Nigericin 1 hour, read-out: IL-6 (IC50)
[10] = differentiated THP-1 cells, LPS 24 hr then Nigericin 1 hour, read-out: IL-6 (IC50)
[11] = −GSH, normalised to dimethyl fumarate high control
[12] = Human hepatocytes, 10 μM compound, 60 min
[13] = Mouse hepatocytes, 10 μM compound, 60 min
[14] = Homo sapiens, THP-1, differentiated THP-1 cells, LPS 24 hr then Nigericin 1 hour, read-out: IL-1β (IC50)
[15] = Homo sapiens, THP-1, differentiated THP-1 cells, footnote a: data from repeated experiments, read-out: IL-1β (IC50), data from repeated experiments
[16] = −GSH, normalised to dimethyl fumarate high control, read-out: NRF2 activation Emax, −GSH
[17] = −GSH, read-out: NRF2 activation EC50, −GSH

SMILES: C=C(C(=O)O)C(C)C(=O)NC(C)(C)c1ccc(C(F)(F)F)cc1 (single isomer, unassigned) [Example 53, 3-methyl-2-methylene-4-oxo-4-((2-(4-(trifluoromethyl)phenyl)propan-2-yl)amino)butanoic acid]
pIC50 [1, 8]: 5.03
pIC50 [2, 9]: < 4.00
Clint ([3]; human, hepatocytes): <3 μL min^−1 10^−6 cells
T½ ([3]; human, hepatocytes, 10 μM): >7.67 h
Clint ([4]; mouse, hepatocytes): 5 μL min^−1 10^−6 cells
T½ ([4]; mouse, hepatocytes, 10 μM): 4.78 h

SMILES: C=C(C(=O)O)C(C)C(=O)NC(C)(C)c1ccc(C(F)(F)F)cc1 (single isomer, unassigned; isomer 1) [Example 52, 3-methyl-2-methylene-4-oxo-4-((2-(4-(trifluoromethyl)phenyl)propan-2-yl)amino)butanoic acid ISOMER 1]
pIC50 [1, 8]: 4.73
Clint ([3]; human, hepatocytes): <3 μL min^−1 10^−6 cells
half-life at 10 μM [5]: > 7.67 h
T½ ([4]; mouse, hepatocytes, 10 μM): >7.67 h
half-life at 10 μM [6]: 7.18 h

pIC50 [1, 8]: 4.72
pIC50 [2, 10]: < 4.50
Clint ([3]; human, hepatocytes): <3 μL min^−1 10^−6 cells
T½ ([3]; human, hepatocytes, 10 μM): >7.67 h
Clint ([4]; mouse, hepatocytes): 3 μL min^−1 10^−6 cells
T½ ([4]; mouse, hepatocytes, 10 μM): 7.62 h
SMILES: C=C(C(=O)O)C(C)C(=O)N[C@@H](C)c1ccc(C(F)(F)F)cc1 (single isomer, unassigned; isomer 2) [Example 55]

SMILES: C=C(CC(=O)OCCCCCCCC)C(=O)O [4-octyl itaconate, 4-Octyl itaconate, reference compound]
NRF2 activation Emax, +GSH ([7]; +GSH, normalised to dimethyl fumarate high control): 148%
NRF2 activation Emax, −GSH [7, 11]: 165%
pIC50 [1, 8]: 4.42
pIC50 [2, 10]: 4.69
Clint [3, 12]: 401 μL min^−1 10^−6 cells
T½ [3, 12]: 0.067 h
Clint [4, 13]: 351 μL min^−1 10^−6 cells
T½ [4, 13]: 0.067 h

pIC50 [1, 14]: 4.60
pIC50 [2, 9]: < 4.00
SMILES: C=C(CC(=O)NCc1ccc(C(F)(F)F)cc1)C(=O)O [Example 6, 2-methylene-4-oxo-4-((4-(trifluoromethyl)benzyl)amino)butanoic acid]

pIC50 [1, 14]: 4.36
pIC50 [2, 9]: < 4.00
SMILES: C=C(CC(=O)N[C@@H](CC)c1ccc(C(F)(F)F)cc1)C(=O)O [Example 8, (S)-2-methylene-4-oxo-4-((1-(4-(trifluoromethyl)phenyl)propyl)amino)butanoic acid]

pIC50 [1, 14]: 4.58
pIC50 [1, 15]: 4.45
pIC50 [2, 9]: < 4.00
SMILES: C=C(CC(=O)N[C@@H](CO)c1ccc(C(F)(F)F)cc1)C(=O)O [Example 12, (R)-4-((2-hydroxy-1-(4-(trifluoromethyl)phenyl)ethyl)amino)-2-methylene-4-oxobutanoic acid]

pIC50 [1, 14]: 4.47
pIC50 [1, 15]: 4.49
pIC50 [2, 9]: < 4.21
SMILES: C=C(CC(=O)N[C@@H](C)c1ccc(Cl)cc1)C(=O)O [Example 15, (S)-4-((1-(4-chlorophenyl)ethyl)amino)-2-methylene-4-oxobutanoic acid]

pIC50 [1, 14]: 4.25
pIC50 [2, 9]: < 4.50
SMILES: C=C(CC(=O)N[C@@H](C)c1ccc(C(F)F)cc1)C(=O)O [Example 18, (S)-4-((1-(4-(difluoromethyl)phenyl)ethyl)amino)-2-methylene-4-oxobutanoic acid]

pIC50 [1, 8]: 4.87
pIC50 [2, 10]: < 4.00
Clint ([3]; human, hepatocytes): <3 μL min^−1 10^−6 cells
T½ ([3]; human, hepatocytes, 10 μM): >7.67 h
Clint ([4]; mouse, hepatocytes): 4 μL min^−1 10^−6 cells
T½ ([4]; mouse, hepatocytes, 10 μM): 5.92 h
SMILES: C=C(CC(=O)NC(c1ccc(C(F)(F)F)cc1)C1CC1)C(=O)O (centres unmarked) [Example 23, 4-((cyclopropyl(4-(trifluoromethyl)phenyl)methyl)amino)-2-methylene-4-oxobutanoic acid]

pIC50 [1, 14]: 5.39
Clint ([3]; human, hepatocytes): 21 μL min^−1 10^−6 cells
half-life at 10 μM [5]: 1.17 h
Clint ([4]; mouse, hepatocytes): 153 μL min^−1 10^−6 cells
half-life at 10 μM [6]: 0.183 h
SMILES: C=C(CC(=O)N[C@@H](C)c1ccc(C(F)(F)F)cc1)C(=O)OCCNS(C)(=O)=O [Example 25, 2-(methylsulfonamido)ethyl (S)-2-methylene-4-oxo-4-((1-(4-(trifluoromethyl)phenyl)ethyl)amino)butanoate]

pIC50 [1, 14]: 4.37
pIC50 [2, 9]: 4.92
SMILES: C=C(CC(=O)N[C@@H](C)c1ccc(C(F)(F)F)cn1)C(=O)OC1CCN(C(C)=O)CC1 [Example 35, 1-acetylpiperidin-4-yl (S)-2-methylene-4-oxo-4-((1-(5-(trifluoromethyl)pyridin-2-yl)ethyl)amino)butanoate]

pEC50 ([7]; +GSH, read-out: NRF2 activation EC50, +GSH): < 4.00
pEC50 [7, 17]: 4.80
pIC50 [1, 14]: 5.41
pIC50 [2, 9]: < 4.00
Clint ([4]; mouse, hepatocytes): 61 μL min^−1 10^−6 cells
half-life at 10 μM [6]: 0.367 h
SMILES: C=C(CC(=O)N[C@@H](C)c1ccc(C(F)(F)F)cn1)C(=O)OC1CN(C(C)=O)C1 [Example 36, 1-acetylazetidin-3-yl (S)-2-methylene-4-oxo-4-((1-(5-(trifluoromethyl)pyridin-2-yl)ethyl)amino)butanoate]
Emax ([7]; +GSH, normalised to dimethyl fumarate high control, read-out: NRF2 activation Emax, +GSH): 25%
Emax [7, 16]: 65%

pIC50 [1, 14]: 4.53
pIC50 [2, 9]: < 4.00
SMILES: C=C(CC(=O)N[C@@H](C)c1ccc(C(F)(F)F)nc1)C(=O)O [Example 38, (S)-2-methylene-4-oxo-4-((1-(6-(trifluoromethyl)pyridin-3-yl)ethyl)amino) butanoic acid]

pIC50 [1, 14]: 5.68
Clint ([3]; human, hepatocytes): <3 μL min^−1 10^−6 cells
half-life at 10 μM [5]: > 7.67 h
Clint ([4]; mouse, hepatocytes): 9 μL min^−1 10^−6 cells
half-life at 10 μM [6]: 2.72 h
SMILES: CC/C=C(\CC(=O)N[C@@H](C)c1ccc(C(F)(F)F)cc1)C(=O)O [Example 43, (S,E)-2-(2-oxo-2-((1-(4-(trifluoromethyl)phenyl)ethyl)amino)ethyl)pent-2-enoic acid]

SMILES: C=C(C(=O)O)C(C)C(=O)NC(C)(C)c1ccc(C(F)(F)F)cc1 (centres unmarked) [Example 51, 3-methyl-2-methylene-4-oxo-4-((2-(4-(trifluoromethyl)phenyl)propan-2-yl)amino)butanoic acid]
pIC50 ([1]; Homo sapiens, THP-1, read-out: IL-1β (IC50)): 4.99
pIC50 ([2]; Homo sapiens, THP-1, read-out: IL-6 (IC50)): < 4.00
Clint ([3]; human, hepatocytes): <3 μL min^−1 10^−6 cells
half-life at 10 μM [5]: > 7.67 h

pEC50 [7, 17]: 4.67
pIC50 [1, 14]: < 4.00
pIC50 [2, 9]: 4.00
SMILES: C=C(CC(=O)OC)C(=O)OC [dimethyl itaconate, Dimethyl itaconate, reference compound]
Emax [7, 16]: 137%
NRF2 activation Emax, −GSH [7, 11]: 137%
